Data taken from patent US12440531B2, “Composition for use in improving endothelial function by enhancing flow mediated dilation” (SOCIETE DES PRODUITS NESTLE S.A., priority 2019, dated 2025).

Columns and labels:
L. johnsonii esterase = assay: Substrate specificity with 4-nitrophenyl derivatives; assay type: biochemical, Lactobacillus johnsonii; settings: substrate 0.2 mM, sodium phosphate buffer pH 6.0, 37° C., 10 min, absorbance 410 nm
Method: The substrate specificity of L. johnsonii esterase was studied using different 4-nitrophenyl derivatives. […] The reactions were carried out in sodium phosphate buffer pH 6.0 at 37° C. for 10 min. The substrates were used at concentration of 0.2 mM and enzyme at 0.01 U/mg substrate. The measures were monitored each 30 seconds. The absorbance was set at 410 nm.

human vascular function = settings: pure 5-CQA at 450 mg and 900 mg, 24 subjects; cited from earlier work

transformation as substrate of L. johnsonii esterase (L. johnsonii esterase) | Structure (SMILES) | effect on human vascular function (human vascular function)
best substrate | CCCC(=O)Oc1ccc([N+](=O)[O-])cc1 [4-nitrophenyl butyrate] | 
no transformation | CCCCCCCCCCCC(=O)Oc1ccc([N+](=O)[O-])cc1 [4-nitrophenyl dodecanoate] | 
 | O=C(/C=C/c1ccc(O)c(O)c1)O[C@@H]1C[C@](O)(C(=O)O)C[C@@H](O)[C@H]1O [Dose 5-CQA, 5-CQA] | did not show a significant effect
